Laboratory results reported in patent US7141604B2, “Citalopram for the treatment of elevated blood pressure” (Egis Gyógyszergyár Rt., priority 2002, dated 2006).
Where two headings read alike, the source gives them in different places.

Assays:
[1] = in the course of treatment of depression; cited from earlier work
hypertensive patients = experiment: Study III: patients with high blood pressure but without anxiety or depression; type: in vivo; conditions: for outcome in 55 non-responder patients, antihypertensive added to citalopram 20 mg/day: after six weeks, betaloc oral 100 mg/day (40 patients) or captopril 2×12.5 mg/day (15 patients) in addition to citalopram
Protocol: In the test 102 hypertensive patients participated who complained of the following symptoms: attack like headache, dizziness, trembling, tremor, sweating, fear of death, sensation of heat and cold, and gastrointestinal complaints. The patients thought that their complaints were the consequence of panic attacks, but this was not supported by their psychiatric anamnesis in an unambiguous manner.
The patients were orally treated with citalopram in a dose of 5 mg/day on the first week, 10 mg/day on the second week and 20 mg/day on the third week.
From the 55 non-responder patients 40 individuals (39%) received betaloc in an oral dose of 100 mg/day and 15 patients (15%) received captopril in a dose of 2×12.5 mg/day, in addition to the administration of 20 mg/day of citalopram.

hypertonic patients = experiment: Study I: antihypertensive effect of citalopram in hypertonic patients with panic disorder; type: in vivo; conditions: for outcome in remaining 84 patients, antihypertensive added to citalopram 20 mg/day: after 6 weeks, oral metoprolol 2×50 mg/day (64 patients) or captopril 2×12.5 mg/day (20 patients) in addition to citalopram
Protocol: 254 patients participated in the study. All patients were hypertonic. In this group of hypertonics there were 120 patients suffering from panic disorder and agoraphobia, 70 patients suffering from panic disorder with agoraphobia and with depression, and 64 patients suffering from panic disorder with agoraphobia and with social phobia and/or with obsessive compulsive disorder (OCD).
The patients received citalopram in a dose of 5 mg/day on the first week, 10 mg/day on the second week and 20 mg/day on the third and fourth week.
The citalopram treatment of the remaining 84 patients was continued with a weekly oral dosage of 20 mg/day. From said 84 individuals 64 patients were additionally treated orally with metoprolol for 3 weeks in a dose of 2×50 mg/day and 20 patients received captopril in a dose of 2×12.5 mg/day.

[2] = test system: patients having unstable high blood pressure; conditions: human, in vivo, po
Protocol: In the study 13 patients having unstable high blood pressure were used who suffered from different anxiety disorders and depression.
Out of these patients 3 suffered from panic disorder, 1 from obsessive compulsive disorder and 9 from panic disorder with depression. On the beginning of treatment with the following antidepressants the patients were normotensive.
The patients were treated orally with 40 mg/day of paroxetine, or 100 mg/day of sertraline, or 20 mg/day of fluoxetine, or 150 mg/day of fluvoxamine. After 6 months 60% of the patients and after a period of 12–30 months 40% of the patients became hypertensive beside the normalization of their psychiatric state.
Thereafter the above mentioned antidepressants were substituted with citalopram. The oral dose of citalopram was 5 mg/day on the first week, 10 mg/day on the second week and 20 mg/day on the third week.

[3] = after three weeks, oral citalopram 5/10/20 mg/day, of 102 hypertensive patients
[4] = after 4 weeks treatment, citalopram 5/10/20/20 mg/day, of 254 hypertonic patients

CN(C)CCCC1(c2ccc(F)cc2)OCc2cc(C#N)ccc21 (centres unmarked) [citalopram, 1-(3-dimethylamino-propyl)-1-(4-fluoro-phenyl)-1,3-dihydro-5-isobenzofurance-carbonitrile]
undesired side effect given in information leaflet [1]: hypotension may occur
patients recovered and became normotensive (hypertensive patients; [3]): 47 patients
share of patients recovered and became normotensive (hypertensive patients; [3]): 46%
patients with complete recovery (became normotensive, symptoms of anxiety and affective disorders disappeared) (hypertonic patients; [4]): 170 patients
share of patients with complete recovery (became normotensive) (hypertonic patients; [4]): 67%

C[C@H](CS)C(=O)N1CCC[C@H]1C(=O)O [captopril]
outcome in 55 non-responder patients, antihypertensive added to citalopram 20 mg/day (hypertensive patients): complete recovery
outcome in remaining 84 patients, antihypertensive added to citalopram 20 mg/day (hypertonic patients): complete recovery

CN[C@H]1CC[C@@H](c2ccc(Cl)c(Cl)c2)c2ccccc21 [sertraline]
patients who became hypertensive [2]: 40%
patients who became hypertensive ([2]; 6 months): 60%

COCCCC/C(=N\OCCN)c1ccc(C(F)(F)F)cc1 [fluvoxamine]
patients who became hypertensive [2]: 40%
patients who became hypertensive ([2]; 6 months): 60%

COCCc1ccc(OCC(O)CNC(C)C)cc1 (centres unmarked) [metoprolol]
outcome in remaining 84 patients, antihypertensive added to citalopram 20 mg/day (hypertonic patients): complete recovery

CNCCC(Oc1ccc(C(F)(F)F)cc1)c1ccccc1 (centres unmarked) [fluoxetine]
patients who became hypertensive [2]: 40%
patients who became hypertensive ([2]; 6 months): 60%

COCCc1ccc(OCC(O)CNC(C)C)cc1 (centres unmarked) [betaloc]
outcome in 55 non-responder patients, antihypertensive added to citalopram 20 mg/day (hypertensive patients): complete recovery

Fc1ccc([C@@H]2CCNC[C@H]2COc2ccc3c(c2)OCO3)cc1 [paroxetine]
patients who became hypertensive [2]: 40%
patients who became hypertensive ([2]; 6 months): 60%
